Values of other authors in patent US20110064816A1 (DR. REDDY'S LABORATORIES LTD., priority 2008, published 2011).
Structures can show the parent of a compound that is named as a salt.

Conditions: exposed to heat, moisture, light and low pH conditions

- Degradation from the carboxylic form to a lactone form: susceptible to degradation
Structure (SMILES): CC(C)c1c(C(=O)Nc2ccccc2)c(-c2ccccc2)c(-c2ccc(F)cc2)n1CC[C@@H](O)C[C@@H](O)CC(=O)O (relative stereo) [Atorvastatin calcium, [R-(R*,R*)]-2-(4-fluorophenyl)-β,δ-dihydroxy-5-(1-methylethyl)-3-phenyl-4-[(phenylamino)carbonyl]-1H-pyrrole-1-heptanoic acid, calcium salt (2:1) trihydrate]
